Test results from the NIST ThermoML archive (doi:10.1021/je9003178).
Numbers after ± are expanded uncertainties.

Experiment: activity coefficient (dimensionless); of the first substance listed, at infinite dilution; xn = mol fraction of the nth substance listed
Details: Liquid, Chromatography, x1 = 0

| Structure (SMILES) | activity coefficient (322.65 K) | activity coefficient (332.85 K) | activity coefficient (343.15 K) | activity coefficient (343.85 K) | activity coefficient (352.65 K) |
| --- | --- | --- | --- | --- | --- |
| c1ccsc1 [thiophene] + CCn1cc[n+](C)c1.N#CN=C=[N-] | 1.6 ± 0.06 | 1.51 ± 0.06 | 1.53 ± 0.06 |  |  |
| ClC(Cl)Cl [trichloromethane] + CCCCCC[N+](C)(C)C.O=S(=O)([N-]S(=O)(=O)C(F)(F)F)C(F)(F)F | 0.89 ± 0.027 |  |  | 0.929 ± 0.026 | 0.966 ± 0.026 |
| CCC(=O)CC [pentan-3-one] + CCCCCC[N+](C)(C)C.O=S(=O)([N-]S(=O)(=O)C(F)(F)F)C(F)(F)F | 0.563 ± 0.032 |  |  | 0.601 ± 0.031 | 0.637 ± 0.03 |
| CCCCCC [hexane] + CCCCCC[N+](C)(C)C.O=S(=O)([N-]S(=O)(=O)C(F)(F)F)C(F)(F)F | 9.81 ± 0.45 |  |  | 9.02 ± 0.41 | 8.85 ± 0.41 |
| CCCCCCCCCCCC [dodecane] + CCn1cc[n+](C)c1.N#CN=C=[N-] | 1410 ± 68 | 1290 ± 62 | 1180 ± 57 |  |  |
| CC(C)O [propan-2-ol] + CCn1cc[n+](C)c1.N#CN=C=[N-] | 1.2 ± 0.04 | 1.14 ± 0.03 | 1.09 ± 0.03 |  |  |
| CCO [ethanol] + CCn1cc[n+](C)c1.N#CN=C=[N-] | 0.78 ± 0.03 | 0.74 ± 0.03 | 0.75 ± 0.03 |  |  |
| C[N+](=O)[O-] [nitromethane] + CCn1cc[n+](C)c1.N#CN=C=[N-] | 0.66 ± 0.03 | 0.64 ± 0.03 | 0.63 ± 0.03 |  |  |
| CCO [ethanol] + CCCCCC[N+](C)(C)C.O=S(=O)([N-]S(=O)(=O)C(F)(F)F)C(F)(F)F | 2.41 ± 0.11 |  |  | 1.28 ± 0.043 | 1.21 ± 0.039 |
| CCCCCC [hexane] + CCn1cc[n+](C)c1.N#CN=C=[N-] | 111 ± 5.2 | 99.6 ± 4.7 | 89.5 ± 4.2 |  |  |
| C#CCCCC [1-hexyne] + CCCCCC[N+](C)(C)C.O=S(=O)([N-]S(=O)(=O)C(F)(F)F)C(F)(F)F | 2.62 ± 0.12 |  |  | 2.56 ± 0.12 | 2.58 ± 0.12 |
| CC#N [acetonitrile] + CCn1cc[n+](C)c1.N#CN=C=[N-] | 0.8 ± 0.03 | 0.79 ± 0.03 | 0.79 ± 0.03 |  |  |
| CC(C)CO [2-methyl-1-propanol] + CCn1cc[n+](C)c1.N#CN=C=[N-] | 1.48 ± 0.06 | 1.4 ± 0.05 | 1.33 ± 0.05 |  |  |
| CCC(C)CC [3-methylpentane] + CCn1cc[n+](C)c1.N#CN=C=[N-] | 93.7 ± 4.4 | 87.2 ± 4.1 | 81.4 ± 3.8 |  |  |
| CCN(CC)CC [triethylamine] + CCCCCC[N+](C)(C)C.O=S(=O)([N-]S(=O)(=O)C(F)(F)F)C(F)(F)F | 4.53 ± 0.21 |  |  | 4.83 ± 0.22 | 5.04 ± 0.23 |
| CCCCCCCCCCCCCC [tetradecane] + CCn1cc[n+](C)c1.N#CN=C=[N-] | 2500 ± 120 | 2330 ± 110 | 2190 ± 110 |  |  |
| CCCCCCC [heptane] + CCn1cc[n+](C)c1.N#CN=C=[N-] | 183 ± 8.7 | 159 ± 7.5 | 139 ± 6.6 |  |  |
| CC(C)CC(C)(C)C [2,2,4-trimethylpentane] + CCCCCC[N+](C)(C)C.O=S(=O)([N-]S(=O)(=O)C(F)(F)F)C(F)(F)F | 13.1 ± 0.6 |  |  | 12.1 ± 0.56 | 11.8 ± 0.54 |
| CCCCCCCC [octane] + CCn1cc[n+](C)c1.N#CN=C=[N-] | 290 ± 14 | 260 ± 12 | 234 ± 11 |  |  |
| CCc1ccccc1 [ethylbenzene] + CCCCCC[N+](C)(C)C.O=S(=O)([N-]S(=O)(=O)C(F)(F)F)C(F)(F)F | 1.83 ± 0.079 |  |  | 1.91 ± 0.084 | 1.97 ± 0.088 |
| CC#N [acetonitrile] + CCCCCC[N+](C)(C)C.O=S(=O)([N-]S(=O)(=O)C(F)(F)F)C(F)(F)F | 0.486 ± 0.033 |  |  | 0.46 ± 0.033 | 0.465 ± 0.033 |
| CCCCCCCCC [nonane] + CCn1cc[n+](C)c1.N#CN=C=[N-] | 498 ± 24 | 446 ± 21 | 401 ± 19 |  |  |
| CCCCCCCCCCCCC [tridecane] + CCn1cc[n+](C)c1.N#CN=C=[N-] | 1940 ± 94 | 1780 ± 86 | 1650 ± 79 |  |  |
| CC(C)OC(C)C [diisopropyl ether] + CCCCCC[N+](C)(C)C.O=S(=O)([N-]S(=O)(=O)C(F)(F)F)C(F)(F)F | 3.2 ± 0.15 |  |  | 4.03 ± 0.18 | 4.12 ± 0.19 |
| CCCC(C)=O [pentan-2-one] + CCCCCC[N+](C)(C)C.O=S(=O)([N-]S(=O)(=O)C(F)(F)F)C(F)(F)F | 0.612 ± 0.031 |  |  | 0.638 ± 0.03 | 0.663 ± 0.03 |
| CCOCC [diethyl ether] + CCCCCC[N+](C)(C)C.O=S(=O)([N-]S(=O)(=O)C(F)(F)F)C(F)(F)F | 1.52 ± 0.059 |  |  | 1.91 ± 0.084 | 1.94 ± 0.086 |
